Results: ChEMBL document CHEMBL5226282, “TLR2 Agonistic Small Molecules: Detailed Structure-Activity Relationship, Applications, and Future Prospects” (J Med Chem, 2021)

How the values were obtained:
[1] = target: Toll-like receptor 1/2 (Homo sapiens, UniProt O60603+Q15399); assay: Agonist activity at TLR2/TLR1 in human THP-1 cells; format: cell-based
[2] = target: Toll-like receptor 1/2 (Mus musculus); assay: Agonist activity at TLR2/TLR1 in mouse Macrophage cell line

Toll-like receptor 1/2, sequence (O60603 whole entry): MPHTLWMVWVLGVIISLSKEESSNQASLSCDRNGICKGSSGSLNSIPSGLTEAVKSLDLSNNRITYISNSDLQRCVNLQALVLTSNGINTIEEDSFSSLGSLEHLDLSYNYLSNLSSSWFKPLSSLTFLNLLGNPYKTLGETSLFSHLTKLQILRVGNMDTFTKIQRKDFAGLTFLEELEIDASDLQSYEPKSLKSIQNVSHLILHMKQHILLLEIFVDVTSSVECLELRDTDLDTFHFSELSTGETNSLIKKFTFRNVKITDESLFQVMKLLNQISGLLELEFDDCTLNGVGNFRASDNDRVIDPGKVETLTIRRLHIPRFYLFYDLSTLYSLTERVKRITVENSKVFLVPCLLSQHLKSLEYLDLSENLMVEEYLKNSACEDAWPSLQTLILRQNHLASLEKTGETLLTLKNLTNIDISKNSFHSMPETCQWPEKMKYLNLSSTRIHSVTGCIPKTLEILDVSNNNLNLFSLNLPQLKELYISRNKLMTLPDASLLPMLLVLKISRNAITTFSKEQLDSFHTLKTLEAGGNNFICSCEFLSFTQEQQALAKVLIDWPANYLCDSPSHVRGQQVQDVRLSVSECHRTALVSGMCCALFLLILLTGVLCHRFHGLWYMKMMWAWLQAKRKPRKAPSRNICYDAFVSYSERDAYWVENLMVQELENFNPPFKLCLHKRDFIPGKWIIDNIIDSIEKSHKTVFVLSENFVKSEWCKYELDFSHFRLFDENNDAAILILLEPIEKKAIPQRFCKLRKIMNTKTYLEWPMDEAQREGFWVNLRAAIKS
Toll-like receptor 1/2, sequence (Q15399 whole entry): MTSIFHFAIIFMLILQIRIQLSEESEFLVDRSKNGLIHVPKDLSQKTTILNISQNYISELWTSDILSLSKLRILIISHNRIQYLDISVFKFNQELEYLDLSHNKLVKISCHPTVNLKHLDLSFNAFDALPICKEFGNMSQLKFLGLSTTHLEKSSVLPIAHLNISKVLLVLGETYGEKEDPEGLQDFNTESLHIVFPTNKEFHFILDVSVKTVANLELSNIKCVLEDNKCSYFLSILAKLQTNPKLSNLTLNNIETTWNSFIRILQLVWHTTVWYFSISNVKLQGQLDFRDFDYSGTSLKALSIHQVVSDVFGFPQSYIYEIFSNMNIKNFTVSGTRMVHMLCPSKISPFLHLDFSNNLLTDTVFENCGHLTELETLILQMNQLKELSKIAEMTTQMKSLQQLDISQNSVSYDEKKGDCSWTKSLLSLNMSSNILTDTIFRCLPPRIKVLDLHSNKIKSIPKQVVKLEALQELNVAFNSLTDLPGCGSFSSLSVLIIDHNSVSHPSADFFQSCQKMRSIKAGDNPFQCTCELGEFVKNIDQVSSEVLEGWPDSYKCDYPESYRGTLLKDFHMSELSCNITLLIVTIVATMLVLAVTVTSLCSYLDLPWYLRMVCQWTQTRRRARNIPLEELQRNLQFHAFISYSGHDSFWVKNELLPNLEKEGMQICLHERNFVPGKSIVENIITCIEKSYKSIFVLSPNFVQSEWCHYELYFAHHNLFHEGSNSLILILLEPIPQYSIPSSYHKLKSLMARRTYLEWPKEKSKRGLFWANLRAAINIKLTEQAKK

Row | SMILES | EC50 [1] | EC50 [2]
1 | O=C(N[C@H]1C[C@@H]1c1ccccc1)[C@@H]1CN(C(=O)Cc2cccc(CC(=O)N3C[C@@H](C(=O)N[C@H]4C[C@@H]4c4ccccc4)[C@H](C(=O)N[C@H]4C[C@@H]4c4ccccc4)C3)c2)C[C@H]1C(=O)N[C@H]1C[C@@H]1c1ccccc1 | > 5000 nM | > 5000 nM
2 | O=C(NCCc1ccc(F)cc1)[C@@H]1CN(C(=O)[C@@H]2CCC[C@H](C(=O)N3C[C@@H](C(=O)NCCc4ccc(F)cc4)[C@H](C(=O)NCCc4ccc(F)cc4)C3)C2)C[C@H]1C(=O)NCCc1ccc(F)cc1 | > 5000 nM | > 5000 nM
3 | O=C(NCCc1ccc(F)cc1)[C@@H]1CN(C(=O)c2cccc(C(=O)N3C[C@@H](C(=O)NCCc4ccc(F)cc4)[C@H](C(=O)NCCc4ccc(F)cc4)C3)c2)C[C@H]1C(=O)NCCc1ccc(F)cc1 | > 5000 nM | > 5000 nM
4 | O=C(N[C@H]1C[C@@H]1c1ccccc1)[C@@H]1CN(C(=O)[C@H]2CC[C@H](C(=O)N3C[C@@H](C(=O)N[C@H]4C[C@@H]4c4ccccc4)[C@H](C(=O)N[C@H]4C[C@@H]4c4ccccc4)C3)CC2)C[C@H]1C(=O)N[C@H]1C[C@@H]1c1ccccc1 | > 5000 nM | > 5000 nM
5 | O=C(NCCc1ccc(F)cc1)[C@@H]1CN(C(=O)c2ccc(-c3ccc(C(=O)N4C[C@@H](C(=O)NCCc5ccc(F)cc5)[C@H](C(=O)NCCc5ccc(F)cc5)C4)cc3)cc2)C[C@H]1C(=O)NCCc1ccc(F)cc1 | > 5000 nM | > 5000 nM
6 | O=C(NCCc1ccc(F)cc1)[C@@H]1CN(C(=O)C#CC(=O)N2C[C@@H](C(=O)NCCc3ccc(F)cc3)[C@H](C(=O)NCCc3ccc(F)cc3)C2)C[C@H]1C(=O)NCCc1ccc(F)cc1 | > 5000 nM | > 5000 nM
7 | O=C(N[C@H]1C[C@@H]1c1ccccc1)[C@@H]1CN(C(=O)c2cccc3c(C(=O)N4C[C@@H](C(=O)N[C@H]5C[C@@H]5c5ccccc5)[C@H](C(=O)N[C@H]5C[C@@H]5c5ccccc5)C4)cccc23)C[C@H]1C(=O)N[C@H]1C[C@@H]1c1ccccc1 | > 5000 nM | > 5000 nM
8 | O=C(NCCc1ccc(F)cc1)[C@@H]1CN(C(=O)COCC(=O)N2C[C@@H](C(=O)NCCc3ccc(F)cc3)[C@H](C(=O)NCCc3ccc(F)cc3)C2)C[C@H]1C(=O)NCCc1ccc(F)cc1 | > 5000 nM | > 5000 nM
9 | COc1ccc([C@H]2C[C@@H]2NC(=O)[C@@H]2CN(C(=O)c3ccc(C(=O)N4C[C@@H](C(=O)N[C@H]5C[C@@H]5c5ccc(OC)cc5)[C@H](C(=O)N[C@@H]5C[C@H]5c5ccc(OC)cc5)C4)cc3)C[C@H]2C(=O)N[C@H]2C[C@@H]2c2ccc(OC)cc2)cc1 | > 5000 nM | > 5000 nM
10 | O=C(N[C@H]1C[C@@H]1c1ccccc1)[C@@H]1CN(C(=O)C/C=C/CC(=O)N2C[C@@H](C(=O)N[C@H]3C[C@@H]3c3ccccc3)[C@H](C(=O)N[C@H]3C[C@@H]3c3ccccc3)C2)C[C@H]1C(=O)N[C@H]1C[C@@H]1c1ccccc1 | > 5000 nM | > 5000 nM
11 | O=C(N[C@H]1C[C@@H]1c1ccccc1)[C@@H]1CN(C(=O)/C=C/C(=O)N2C[C@@H](C(=O)N[C@H]3C[C@@H]3c3ccccc3)[C@H](C(=O)N[C@H]3C[C@@H]3c3ccccc3)C2)C[C@H]1C(=O)N[C@H]1C[C@@H]1c1ccccc1 | > 5000 nM | > 5000 nM
12 | O=C(NCCc1ccc(F)cc1)[C@@H]1CN(C(=O)[C@H]2CC[C@H](C(=O)N3C[C@@H](C(=O)NCCc4ccc(F)cc4)[C@H](C(=O)NCCc4ccc(F)cc4)C3)CC2)C[C@H]1C(=O)NCCc1ccc(F)cc1 | > 5000 nM | > 5000 nM
13 | O=C(N[C@H]1C[C@@H]1c1ccccc1)[C@@H]1CN(C(=O)[C@H]2CC[C@@H](C(=O)N3C[C@@H](C(=O)N[C@H]4C[C@@H]4c4ccccc4)[C@H](C(=O)N[C@H]4C[C@@H]4c4ccccc4)C3)CC2)C[C@H]1C(=O)N[C@H]1C[C@@H]1c1ccccc1 | > 5000 nM | > 5000 nM
14 | O=C(N[C@H]1C[C@@H]1c1ccccc1)[C@@H]1CN(C(=O)c2cccc(C(=O)N3C[C@@H](C(=O)N[C@H]4C[C@@H]4c4ccccc4)[C@H](C(=O)N[C@H]4C[C@@H]4c4ccccc4)C3)c2)C[C@H]1C(=O)N[C@H]1C[C@@H]1c1ccccc1 | > 5000 nM | > 5000 nM
15 | N#Cc1ccc([C@H]2C[C@@H]2NC(=O)[C@@H]2CN(C(=O)c3ccc(C(=O)N4C[C@@H](C(=O)N[C@H]5C[C@@H]5c5ccc(C#N)cc5)[C@H](C(=O)N[C@@H]5C[C@H]5c5ccc(C#N)cc5)C4)cc3)C[C@H]2C(=O)N[C@H]2C[C@@H]2c2ccc(C#N)cc2)cc1 | > 5000 nM | > 5000 nM

Next, values leading:

Row | EC50 [1] | EC50 [2] | SMILES
16 | > 5000 nM | > 5000 nM | O=C(O)[C@@H]1CN(C(=O)c2ccc(C(=O)N3C[C@@H](C(=O)O)[C@H](C(=O)N[C@@H]4C[C@H]4c4ccccc4)C3)cc2)C[C@H]1C(=O)N[C@@H]1C[C@H]1c1ccccc1
17 | 0.17 nM | 10 nM | CCCCCCCCCCCCCCNC(=O)[C@@H]1CN(C(=O)c2ccc(C(=O)N3C[C@@H](C(=O)N[C@H]4C[C@@H]4c4ccccc4)[C@H](C(=O)N[C@@H]4C[C@H]4c4ccccc4)C3)cc2)C[C@H]1C(=O)NCCCCCCCCCCCCCC
18 | 0.2 nM | 130 nM | O=C(N[C@H]1C[C@@H]1c1ccccc1)[C@@H]1CN(C(=O)/C=C/C=C/C(=O)N2C[C@@H](C(=O)N[C@H]3C[C@@H]3c3ccccc3)[C@H](C(=O)N[C@H]3C[C@@H]3c3ccccc3)C2)C[C@H]1C(=O)N[C@H]1C[C@@H]1c1ccccc1
19 | 4 nM | 270 nM | O=C(N[C@H]1C[C@@H]1c1ccccc1)[C@@H]1CN(C(=O)c2ccc(C(=O)N3C[C@@H](C(=O)N[C@H]4C[C@@H]4c4ccccc4)[C@H](C(=O)N[C@H]4C[C@@H]4c4ccccc4)C3)nc2)C[C@H]1C(=O)N[C@H]1C[C@@H]1c1ccccc1
20 | 0.28 nM | 60 nM | CCCCNC(=O)[C@@H]1CN(C(=O)c2ccc(C(=O)N3C[C@@H](C(=O)N[C@H]4C[C@@H]4c4ccccc4)[C@H](C(=O)N[C@@H]4C[C@H]4c4ccccc4)C3)cc2)C[C@H]1C(=O)NCCCC
21 | 15 nM | 640 nM | COC(=O)[C@@H]1CN(C(=O)c2ccc(C(=O)N3C[C@@H](C(=O)N[C@H]4C[C@@H]4c4ccccc4)[C@H](C(=O)N[C@@H]4C[C@H]4c4ccccc4)C3)cc2)C[C@H]1C(=O)N[C@H]1C[C@@H]1c1ccccc1
22 | 17 nM | 360 nM | CCCNC(=O)[C@@H]1CN(C(=O)c2ccc(C(=O)N3C[C@@H](C(=O)N[C@H]4C[C@@H]4c4ccccc4)[C@H](C(=O)N[C@@H]4C[C@H]4c4ccccc4)C3)cc2)C[C@H]1C(=O)N[C@H]1C[C@@H]1c1ccccc1
23 | 2.5 nM | 1000 nM | CCCCCCCCCCCCCCCCNC(=O)[C@@H]1CN(C(=O)c2ccc(C(=O)N3C[C@@H](C(=O)N[C@H]4C[C@@H]4c4ccccc4)[C@H](C(=O)N[C@@H]4C[C@H]4c4ccccc4)C3)cc2)C[C@H]1C(=O)NCCCCCCCCCCCCCCCC
24 | 360 nM | > 5000 nM | Cc1ccc([C@H]2C[C@@H]2NC(=O)[C@@H]2CN(C(=O)c3ccc(C(=O)N4C[C@@H](C(=O)N[C@H]5C[C@@H]5c5ccc(C)cc5)[C@H](C(=O)N[C@@H]5C[C@H]5c5ccc(C)cc5)C4)cc3)C[C@H]2C(=O)N[C@H]2C[C@@H]2c2ccc(C)cc2)cc1
25 | 15 nM | 750 nM | C#CCNc1cc(C(=O)N2C[C@@H](C(=O)N[C@H]3C[C@@H]3c3ccccc3)[C@H](C(=O)N[C@H]3C[C@@H]3c3ccccc3)C2)ccc1C(=O)N1C[C@@H](C(=O)N[C@H]2C[C@@H]2c2ccccc2)[C@H](C(=O)N[C@H]2C[C@@H]2c2ccccc2)C1
26 | 200 nM | > 5000 nM | O=C(O)[C@@H]1CN(C(=O)c2ccc(C(=O)N3C[C@@H](C(=O)N[C@H]4C[C@@H]4c4ccccc4)[C@H](C(=O)N[C@@H]4C[C@H]4c4ccccc4)C3)cc2)C[C@H]1C(=O)N[C@H]1C[C@@H]1c1ccccc1
27 | 0.13 nM | 1.2 nM | O=C(N[C@H]1C[C@@H]1c1ccc(F)cc1)[C@@H]1CN(C(=O)c2ccc(C(=O)N3C[C@@H](C(=O)N[C@H]4C[C@@H]4c4ccc(F)cc4)[C@H](C(=O)N[C@@H]4C[C@H]4c4ccc(F)cc4)C3)cc2)C[C@H]1C(=O)N[C@H]1C[C@@H]1c1ccc(F)cc1
28 | 50 nM | > 5000 nM | O=C(NCCc1ccc(F)cc1)[C@@H]1CN(C(=O)c2ccc(C(=O)N3C[C@@H](C(=O)NCCc4ccc(F)cc4)[C@H](C(=O)NCCc4ccc(F)cc4)C3)cc2)C[C@H]1C(=O)NCCc1ccc(F)cc1
29 | > 5 nM | > 5 nM | CCCCCCCCCCCCNC(=O)[C@@H]1CN(C(=O)c2ccc(C(=O)N3C[C@@H](C(=O)NCCCCCCCCCCCC)[C@H](C(=O)NCCCCCCCCCCCC)C3)cc2)C[C@H]1C(=O)NCCCCCCCCCCCC
30 | 860 nM | > 5000 nM | O=C(N[C@H]1C[C@@H]1c1ccccc1)[C@@H]1CN(C(=O)c2cc(Br)c(C(=O)N3C[C@@H](C(=O)N[C@H]4C[C@@H]4c4ccccc4)[C@H](C(=O)N[C@H]4C[C@@H]4c4ccccc4)C3)cc2Br)C[C@H]1C(=O)N[C@H]1C[C@@H]1c1ccccc1
31 | 0.1 nM | 650 nM | CCCCCCCCCCNC(=O)[C@@H]1CN(C(=O)c2ccc(C(=O)N3C[C@@H](C(=O)N[C@H]4C[C@@H]4c4ccccc4)[C@H](C(=O)N[C@@H]4C[C@H]4c4ccccc4)C3)cc2)C[C@H]1C(=O)N[C@H]1C[C@@H]1c1ccccc1
32 | 1 nM | 140 nM | Nc1cc(C(=O)N2C[C@@H](C(=O)N[C@H]3C[C@@H]3c3ccccc3)[C@H](C(=O)N[C@H]3C[C@@H]3c3ccccc3)C2)ccc1C(=O)N1C[C@@H](C(=O)N[C@H]2C[C@@H]2c2ccccc2)[C@H](C(=O)N[C@H]2C[C@@H]2c2ccccc2)C1
33 | 0.18 nM | 4 nM | CCCCCCCCCCNC(=O)[C@@H]1CN(C(=O)c2ccc(C(=O)N3C[C@@H](C(=O)N[C@H]4C[C@@H]4c4ccccc4)[C@H](C(=O)N[C@@H]4C[C@H]4c4ccccc4)C3)cc2)C[C@H]1C(=O)NCCCCCCCCCC
34 | 130 nM | > 5000 nM | O=C(NCCc1ccc(F)cc1)[C@@H]1CN(C(=O)c2ccc(C(=O)N3C[C@@H](C(=O)NCCc4ccc(F)cc4)[C@H](C(=O)NCCc4ccc(F)cc4)C3)c(O)c2)C[C@H]1C(=O)NCCc1ccc(F)cc1
35 | 0.33 nM | 540 nM | CCCCCCCCNC(=O)[C@@H]1CN(C(=O)c2ccc(C(=O)N3C[C@@H](C(=O)N[C@H]4C[C@@H]4c4ccccc4)[C@H](C(=O)N[C@@H]4C[C@H]4c4ccccc4)C3)cc2)C[C@H]1C(=O)N[C@H]1C[C@@H]1c1ccccc1
